# Laboratory results: ChEMBL document CHEMBL1153641, “Diaminocyclobutenediones as potent and orally bioavailable CXCR2 receptor antagonists: SAR in the phenolic amide region” (Bioorg Med Chem Lett, 2009)
# How the values were obtained:
# [1] = molecular target: T1, C-X-C chemokine receptor type 2 (Homo sapiens, UniProt P25025)
# T1 sequence (P25025 whole entry): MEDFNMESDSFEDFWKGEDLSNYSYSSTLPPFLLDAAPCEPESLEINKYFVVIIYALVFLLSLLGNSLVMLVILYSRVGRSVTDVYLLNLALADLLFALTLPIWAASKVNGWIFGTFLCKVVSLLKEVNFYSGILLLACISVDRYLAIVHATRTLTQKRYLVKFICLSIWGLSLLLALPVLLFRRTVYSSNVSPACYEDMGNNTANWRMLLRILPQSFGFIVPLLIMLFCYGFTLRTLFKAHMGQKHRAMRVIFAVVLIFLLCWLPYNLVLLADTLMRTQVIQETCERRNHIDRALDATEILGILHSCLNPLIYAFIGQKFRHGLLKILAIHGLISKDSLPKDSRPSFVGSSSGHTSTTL
# Description: Displacement of human [125I]IL-8 from human CXCR2
# [2] = AUC in rat at 10 mg/kg, po; assay type: ADME, organism-based; design: dose 10 mg/kg, route oral; details: plasma
# [3] = molecular target: T2, C-X-C chemokine receptor type 1 (Homo sapiens, UniProt P25024)
# T2 sequence (P25024 whole entry): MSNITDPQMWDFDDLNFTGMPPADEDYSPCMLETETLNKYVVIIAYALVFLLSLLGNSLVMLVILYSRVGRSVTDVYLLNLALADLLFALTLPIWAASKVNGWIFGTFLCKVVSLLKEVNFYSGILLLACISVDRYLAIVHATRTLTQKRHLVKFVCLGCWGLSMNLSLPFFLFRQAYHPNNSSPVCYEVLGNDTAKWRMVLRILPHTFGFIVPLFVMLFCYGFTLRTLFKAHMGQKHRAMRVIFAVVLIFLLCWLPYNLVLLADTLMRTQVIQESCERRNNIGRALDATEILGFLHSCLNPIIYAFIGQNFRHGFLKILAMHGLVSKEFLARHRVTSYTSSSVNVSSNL
# Description: Displacement of human [125I]IL-8 from human CXCR1
Ki [1] [nM],AUC [2] [µM·h],Ki [3] [nM],SMILES
4.4,17.4,–,CC[C@@H](Nc1c(Nc2cccc(C(=O)N(C)C)c2O)c(=O)c1=O)c1ccccc1
5,2.5,210,CC[C@@H](Nc1c(Nc2cccc(C(=O)N(C)C)c2O)c(=O)c1=O)c1cccs1
20,–,–,CC[C@@H](Nc1c(Nc2cccc(C(=O)N3CCN(C(=O)c4ccccn4)CC3)c2O)c(=O)c1=O)c1ccccc1
15,–,> 1000,CC[C@@H](Nc1c(Nc2ccc(-c3ccccn3)c(C(=O)N(C)C)c2O)c(=O)c1=O)c1ccccc1
> 2000,–,–,CC[C@@H](Nc1c(Nc2cc(-c3ccccc3)cc(C(=O)N(C)C)c2O)c(=O)c1=O)c1ccccc1
50,2.2,1220,CC[C@@H](Nc1c(Nc2cc(Cl)cc(C(=O)N(C)C)c2O)c(=O)c1=O)c1cccs1
76,–,2800,CC[C@@H](Nc1c(Nc2cc(C)cc(C(=O)N(C)C)c2O)c(=O)c1=O)c1cccs1
22,–,–,CC[C@@H](Nc1c(Nc2ccccc2O)c(=O)c1=O)c1ccc(C)o1
> 270,–,–,CC[C@H](c1ccccc1)N(C)c1c(Nc2cccc(C(=O)N(C)C)c2O)c(=O)c1=O
18,–,21,CC[C@@H](Nc1c(Nc2cccc(C(=O)N3CC[C@H](O)C3)c2O)c(=O)c1=O)c1ccccc1
20,0.44,–,CC[C@@H](Nc1c(Nc2cccc(C(=O)N3CC[C@H](CO)C3)c2O)c(=O)c1=O)c1ccccc1
5,–,30,CC[C@@H](Nc1c(Nc2cccc(C(=O)N3CCCC3C(=O)O)c2O)c(=O)c1=O)c1ccccc1 (stereo partly specified)
4,0.06,–,CC[C@@H](Nc1c(Nc2ccc(Br)c(C(=O)N(C)C)c2O)c(=O)c1=O)c1ccccc1
17,–,–,CC[C@@H](Nc1c(Nc2ccc(-c3ccccc3)c(C(=O)N(C)C)c2O)c(=O)c1=O)c1ccccc1
25,2.2,–,CC[C@@H](Nc1c(Nc2cccc(C(N)=O)c2O)c(=O)c1=O)c1ccccc1
3,–,–,CC[C@@H](Nc1c(Nc2cc(C#N)cc(C(=O)N(C)C)c2O)c(=O)c1=O)c1ccccc1
> 270,–,–,CC[C@@H](Nc1c(N2CCOc3c(C(=O)N(C)C)cccc32)c(=O)c1=O)c1ccccc1

Ki [1] [nM],AUC [2] [µM·h],Ki [3] [nM],SMILES
11,1.4,123,CC[C@@H](Nc1c(Nc2cccc(C(=O)N(C)C(C)C)c2O)c(=O)c1=O)c1ccccc1
20,0.5,–,CC[C@@H](Nc1c(Nc2cccc(C(=O)N3CC(O)C3)c2O)c(=O)c1=O)c1ccccc1
12,–,41,CC[C@@H](Nc1c(Nc2cccc(C(=O)N3CCN(C)CC3)c2O)c(=O)c1=O)c1ccccc1
12,–,–,CC[C@@H](Nc1c(Nc2cccc(C(=O)O)c2O)c(=O)c1=O)c1ccc(C)o1
27,–,–,CC[C@@H](Nc1c(Nc2cccc(C(=O)N3CCN(C(C)=O)CC3)c2O)c(=O)c1=O)c1ccccc1
4.5,2.3,381,CC[C@@H](Nc1c(Nc2c(C)ccc(C(=O)N(C)C)c2O)c(=O)c1=O)c1ccccc1
61,1.4,2070,CC[C@@H](Nc1c(Nc2cc(Br)cc(C(=O)N(C)C)c2O)c(=O)c1=O)c1cccs1
219,–,–,CC[C@@H](Nc1c(Nc2cccc(C(=O)NC(C)C)c2O)c(=O)c1=O)c1ccccc1
28,0.4,–,CC[C@@H](Nc1c(Nc2cccc(C(=O)NC)c2O)c(=O)c1=O)c1ccccc1
203,–,–,CC[C@@H](Nc1c(Nc2cc(C)cc(C(=O)N(C)C)c2O)c(=O)c1=O)c1ccccc1
10,–,–,CC[C@@H](Nc1c(Nc2cccc(C(=O)N3CCOCC3)c2O)c(=O)c1=O)c1ccccc1
5,–,54,CC[C@@H](Nc1c(Nc2cc(C#N)cc(C(=O)N(C)C)c2O)c(=O)c1=O)c1cccs1
9,1,–,CC[C@@H](Nc1c(Nc2cccc(C(=O)N3CCCC3)c2O)c(=O)c1=O)c1ccccc1
34,–,–,CC[C@@H](Nc1c(Nc2cccc(C(=O)NC3CC3)c2O)c(=O)c1=O)c1ccccc1
> 270,–,–,CC[C@@H](Nc1c(Nc2cccc(C(=O)N(C)C)c2OC)c(=O)c1=O)c1ccccc1
> 270,–,–,CC[C@H](c1ccccc1)N(C)c1c(N(C)c2cccc(C(=O)N(C)C)c2O)c(=O)c1=O
